In article PMC7307922 (Journal of Medicinal Chemistry, 2020):
Positions count from the first letter of the chain named.

What was measured:
human GPR84 = human GPR84 (Homo sapiens, UniProt Q9NQS5); assay: GPR84 counterscreen, cAMP assay; type: cell-based; conditions: 10 μM
Protocol: Counter screening against FFA1, FFA2 , FF A4 and GPR84 […]
(100 ng/mL) overnight to induce receptor expressi on. […]
Counter screening for GPR84 was carried out using a cAMP assay. Flp -In T-Re x 293 cells generated to stably express human GPR84 tagged at is C-terminal with Gia were first treated with doxycycline […]
HT R-FRET cAMP assay (CisBio) according to the manufacturer’s protocol and measured using an Envision plate reader (PerkinElmer). For these experiments, 5000 cells were used per well in a low volume 384-well plate and compounds were tested against their ability to inhibit the cAMP response to 1 µM forskolin for 45 min. TUG-1985 was used as reference agonist. […]

mFFA3 = target: T1, mFFA3 (Mus musculus, UniProt Q3UFD7); assay: biochemical
T1 sequence (Q3UFD7 1-319): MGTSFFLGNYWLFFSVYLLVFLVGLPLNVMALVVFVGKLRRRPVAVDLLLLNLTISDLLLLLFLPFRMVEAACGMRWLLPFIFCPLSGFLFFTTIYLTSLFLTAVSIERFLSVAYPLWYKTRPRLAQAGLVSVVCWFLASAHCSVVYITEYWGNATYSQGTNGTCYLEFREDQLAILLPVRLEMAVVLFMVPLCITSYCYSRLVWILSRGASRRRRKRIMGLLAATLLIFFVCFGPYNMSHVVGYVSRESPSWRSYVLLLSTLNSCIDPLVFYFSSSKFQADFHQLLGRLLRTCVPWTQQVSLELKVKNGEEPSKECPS
Protocol: (§1) Reactions were initiated with the addition of [^35S]GTPγS at 50 nCi per tube; reactions were terminated after 1 h of incubation at 25 °C by rapid filtration through GF/C glass filters using a 24-well Brandel cell harvester (Alpha Biotech, Glasgow, UK). Unbound radioligand was removed from filters by washing three times with ice-cold wash buffer (50 mM Tris–HCl, pH 7.4, and 10 mM MgCl2), and [^35S]GTPγS binding was determined by liquid scintillation spectrometry.

[1] = Chemical stability in DMSO (NMR); type: physicochemical
Protocol: To further ensure the suitability of 57 as a tool compound for in vitro studies, the chemical stability was also evaluated in dimethyl sulfoxide (DMSO).

[2] = tested on: cells dissociated from mouse dorsal root ganglia; assay: Intracellular calcium in dorsal root ganglion cells of wild-type and FFA3 KO mice; type: cell-based; conditions: 5 μM; DRG cells of wild type vs FFA3 KO mice
Protocol: Colonic innervating DRGs were isolated from the T9-L2 region of the spinal cord of C57/BL6 mice and from FFA3 knock-out animals and immediately placed in cold Hanks’ balanced salt solution (HBSS; Sigma-Aldrich). Isolated DRGs were initially digested with HBSS containing L-cysteine (0.3 mg/mL) and papain (2.0 mg/mL) for 20 min at 37 °C. The solution was removed and replaced with HBSS contain collagenase (4.0 mg/mL) and dispase (4.0 mg/mL) (20 min at 37 °C) for further digestion. The collagenase solution was then replaced with DMEM to stop the reaction. The DRGs were finally dissociated by mechanical trituration using a pipette. Dissociated cells were plated on matrigel-coated coverslips and placed in an incubator (37 °C and 5% CO2). Following a 2 h incubation, cells were flooded with 90% DMEM (Sigma) supplemented with 10% fetal calf serum and 1% PenStrep and further incubated overnight at 37 °C and 5% CO2.
To measure intracellular calcium and its potential regulation, dissociated cells on the coverslips were loaded with Fura 8-AM (3 μM) (Stratech Scientific Limited) for 20 min at 37 °C in the dark. […]

hFFA3 R71A = target: T2, hFFA3 R71A (Homo sapiens, UniProt O14843, R71A); assay: Potency at FFA3 mutant R71A; type: cell-based
T2 sequence (O14843 1-346 R71A): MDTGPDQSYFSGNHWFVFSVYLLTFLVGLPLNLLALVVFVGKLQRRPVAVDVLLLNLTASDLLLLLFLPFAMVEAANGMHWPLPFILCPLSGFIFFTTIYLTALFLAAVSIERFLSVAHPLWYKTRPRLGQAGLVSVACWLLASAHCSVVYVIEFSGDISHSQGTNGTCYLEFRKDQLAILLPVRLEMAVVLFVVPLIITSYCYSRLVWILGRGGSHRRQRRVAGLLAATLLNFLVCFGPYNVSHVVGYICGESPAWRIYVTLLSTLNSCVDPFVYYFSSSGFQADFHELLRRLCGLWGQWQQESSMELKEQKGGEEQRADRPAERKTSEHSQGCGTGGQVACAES
Protocol: The previously published compound 1 was not affected by mutation of either R185A or R258A in the orthosteric binding site, and the compounds were therefore believed to be allosteric modulators. […] After the publication of the FFA1 crystal structure in complex with an allosteric agonist located in the TM region close to the intracellular site,[32] a homology model of hFFA3 was constructed using Modeller. […] Thus, additional docking of (R)-1 in this site were performed to find poses where Q131, but not R126, show a central role in binding. […] The narrow binding cavity around the core scaffold is in agreement with the restrained SAR observed for this series and the furan moiety pointing out of the binding cavity might explain the flexibility in substituents at this site (Figure 3c,d). Although Q131A impacts the potency of (R)-1 with high significance, the magnitude of the effect is lower than what would be generally expected for the removal of a hydrogen bond interaction; thus, additional studies are required to confirm the proposed binding site.

FFA3 R258A = tested on: FFA3 R258A; parameters: method as in PMID 24870406; conditions: orthosteric binding site; cited from earlier work
FFA3 R185A = tested on: FFA3 R185A; parameters: method as in PMID 24870406; conditions: orthosteric binding site; cited from earlier work
hFFA3 = target: T3, hFFA3 (Homo sapiens, UniProt O14843); assay: biochemical; conditions: for GTPγS pEC50: hFFA3, mean of ≥3 independent experiments ± standard error; for Emax: read-out: GTPγS Emax
T3 sequence (O14843 1-346): T2 sequence (O14843 1-346 R71A) with A71R
Protocol: The ligands were initially screened in a human FFA3-dependent [^35S]GTPγS binding assay as this assay reflects receptor-mediated activation of Gi/o proteins and is known to generally correlate well with ligand affinity.[30] Analogues of particular interest were tested further in a cAMP inhibition assay as this is an important downstream effect of Gi-activation. […] It is furthermore performed in whole cells, is more downstream, includes G protein signal amplification, and therefore better reflects a more natural ligand–receptor response.
Membranes were isolated from Flp-In T-REx HEK293 cells treated with 100 ng/mL doxycycline to induce receptor expression. Cells were washed with ice-cold phosphate-buffered saline and removed from dishes by scraping before being centrifuged for 5 min at 4 °C, 3000 rpm. Pellets were resuspended in TE buffer (75 mM Tris–HCl, 5 mM EDTA; pH 7.5) with the addition of a protease inhibitor mixture (Roche Applied Science, West Sussex, UK). This was then homogenized with a 5 mL hand-held homogenizer and subsequently centrifuged at 1500 rpm for 5 min at 4 °C, from which the supernatant was collected and further centrifuged at 50 000 rpm for 30 min at 4 °C. The resulting pellet was resuspended in TE buffer, and the protein content was measured using a BCA protein assay kit (Pierce, Fisher Scientific, Loughborough, UK).
as §1

Sequence of human GPR84 (Q9NQS5 whole entry): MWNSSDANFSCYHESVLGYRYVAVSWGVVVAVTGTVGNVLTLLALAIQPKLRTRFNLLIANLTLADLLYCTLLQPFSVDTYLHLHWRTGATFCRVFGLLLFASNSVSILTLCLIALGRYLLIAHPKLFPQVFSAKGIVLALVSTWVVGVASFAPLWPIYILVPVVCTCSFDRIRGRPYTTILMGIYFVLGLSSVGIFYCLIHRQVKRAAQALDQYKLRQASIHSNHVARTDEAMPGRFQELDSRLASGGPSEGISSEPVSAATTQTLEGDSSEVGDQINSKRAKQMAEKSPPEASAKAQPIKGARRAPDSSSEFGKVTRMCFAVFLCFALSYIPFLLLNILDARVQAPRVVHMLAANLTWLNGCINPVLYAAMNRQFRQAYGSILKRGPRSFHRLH

Row | Structure (SMILES) | GPR84, agonist, cAMP assay (human GPR84) [%] | activity at GPR84 (human GPR84) | EC50 (mFFA3) [µM] | chemical stability in DMSO ([1]; 4 °C, after 1 and 30 days, NMR) | chemical stability in DMSO ([1]; rt, not protected from light, 7 days) | chemical stability in DMSO ([1]; rt, not protected from light, 30 days) | elevation of intracellular calcium levels [2] | effect of mutation R71A on potency (hFFA3 R71A) | effect of mutation R258A (FFA3 R258A) | effect of mutation R185A (FFA3 R185A) | higher potency than 3-furyl derivative 2 (hFFA3; GTPγS assay) | GTPγS pEC50 (hFFA3) | Emax (hFFA3) [%]
1 | CC1=C(C(=O)Nc2cc(Cl)ccc2Cl)C(C2CCCC2)C2=C(CCCC2=O)N1 (stereo not drawn) [Compound 63, 4-Cyclopentyl-N-(2,5-dichlorophenyl)-2-methyl-5-oxo-1,4,5,6,7,8-hexahydroquinoline-3-carboxamide] | 0±1 | No significant activity | – | – | – | – | – | – | – | – | – | – | –
2 | CCCC1C(C(=O)Nc2cc(Cl)ccc2Cl)=C(C)NC2=C1C(=O)CCC2 (stereo not drawn) [Compound 57, N-(2,5-Dichlorophenyl)-2-methyl-5-oxo-4-propyl-1,4,5,6,7,8-hexahydroquinoline-3-carboxamide] | 1±4 | No significant activity | 2 | complete stability | fully stable | minor decomposition | large elevation in intracellular calcium levels in wild type but not FFA3 KO cells | – | – | – | – | – | –
3 | CC1=C(C(=O)Nc2ccccc2C)C(c2ccco2)C2=C(CCCC2=O)N1 (stereo not drawn) [Compound 1, 4-(Furan-2-yl)-2-methyl-5-oxo-N-(o-tolyl)-1,4,5,6,7,8-hexahydroquinoline-3-carboxamide, reference compound] | 1±7 | No significant activity | – | – | – | – | – | did not affect | not affected | not affected | approximately 2 fold | 5.65 ± 0.07 | 100
4 | CC1=C(C(=O)Nc2cc(Cl)ccc2Cl)C(c2ccco2)C2=C(CCCC2=O)N1 (stereo not drawn) [Compound 16, reference compound] | 2±4 | No significant activity | – | – | – | – | – | – | – | – | – | 5.74 ± 0.11 | 120
